Publication PMC10301432, “Antiplasmodial, Trypanocidal, and Genotoxicity In Vitro Assessment of New Hybrid α,α-Difluorophenylacetamide-statin Derivatives” (Pharmaceuticals, 2023)
“Also recorded” adds a separate entry of the source. Like-named read-outs stand apart in the source and are kept apart here.

Experiments:
[1] = test system: intracellular forms of T. cruzi (Tulahuen strain transfected with β-galactosidase); test: Activity against intracellular T. cruzi in L929 cells; assay type: cell-based, Trypanosoma cruzi; conditions: for EC50: intracellular forms, Tulahuen strain; for EC50 / 10µM (% of Parasite Lysis): 96 h; for 10µM (% of Parasite Lysis): fixed concentration 10 µM; for SI: LC50 (L929)/EC50 (intracellular forms)
Procedure: Tissue culture-derived trypomastigotes (Tulahuen strain expressing the E. coli β-galactosidase gene) were maintained in L929 cell lines and collected from the supernatant after 96 h of parasite infection, following previously established protocols. Briefly, after 24 h of L929 platting (4 × 10^3 cells/well), the cultures were incubated with trypomastigotes (10:1 parasite/host cell ratio) for 2 h at 37 °C. Then, the cell cultures were rinsed to remove non-internalized parasites and then further incubated for 24 h at 37 °C. Then the infected cultures were followed using two sequential protocols. […] After this period, 50 µL chlorophenol red glycoside (500 µM) in 0.5% Nonidet P40 was added to each well and the plate was incubated for more than 18 h at 37 °C, after which the absorbance was measured at 570 nm. […] Controls with untreated and Bz-treated cells are run in parallel. The results were expressed as the percent difference in the reduction between treated and untreated cells.

[2] = test system: HepG2 cells; test: In vitro micronuclei assay, HepG2; assay type: cell-based, human; conditions: HepG2; 3 h of exposure
Procedure: Fresh HepG2 and CHO-K1 cells were seeded at the density of 1 × 10^5 cells/mL into 24-well plates (1 mL/per well). The compounds 13 (a–d) were then added to the medium to final concentrations of 500, 1000 and 2000 µM and incubation continued for 3 h or 24 h. DMSO 10% was used as the negative control, and, BaP (80 µM) for HepG2 and MMC (5 µM) for CHO-K1 were the positive controls. After exposure to the compounds, the cells were incubated for more than 24 h under growth conditions before quantification of the micronuclei and cytotoxicity. The cytogenetic studies were carried out in triplicate as described previously (see [51]). In order to determine the mitotic index and the number of cells with micronuclei, the medium was replaced by a cold methanol-glacial acetic acid (3:1) fixative for 30 min, and the cells then rinsed with distilled water for 2 min and air dried. The fixed cells were stained with 4,6-diamidino-2-phenylindole (DAPI) ([…]) dissolved in McIlvaine buffer (0.1 M citric acid plus 0.2 M Na2HPO4, pH 7.0) for 60 min, washed with McIlvaine buffer for 5 min, briefly rinsed with distilled water and mounted in glycerol. To determine the mitotic index and the number of cells with micronuclei, 1000 cells per well (3000 cells per concentration) were analyzed under a fluorescence microscope. The results for micronuclei were presented as the percentage of cells containing micronuclei in the 3000 cells/concentration group analyzed. Cells that glowed brightly and had homogenous nuclei were considered as having normal phenotypic morphology. Apoptotic nuclei were identified by the condensed chromatin at the periphery of the nuclear membrane or by fragmented nuclear body morphology. Necrotic cells presented chromatin forms with irregularly shaped aggregates, a pyknotic nucleus (shrunken and darkly stained) and cell membrane disruption, with cellular debris spilled into the extracellular milieu. Once again, 3000 cells were counted and the percentage of viable cells was evaluated, discounting apoptotic and necrotic cells. Statistical differences between the groups were analyzed by two-way ANOVA (p < 0.01) and Tukey’s post hoc test.

[3] = test system: trypomastigote forms of T. cruzi (Y strain); test: Trypanocidal activity on bloodstream trypomastigotes; assay type: cell-based, Trypanosoma cruzi; conditions: for EC50: Trypanosoma cruzi, bloodstream trypomastigotes, Y strain, 24 h at 37 °C; for SI: LC50 (cardiac cells)/EC50 (trypomastigotes)
Procedure: (§1) Bloodstream trypomastigote forms (BT) of the Y strain were obtained from infected albino Swiss mice at the peak of parasitemia, isolated by differential centrifugation and resuspended in DMEM to a parasite concentration of 10^7 cells/mL in the presence of 10% of mouse blood. This suspension (100 µL) was added in the same volume of 13 (a–d) and 14 (a–d) previously prepared at twice the desired final concentrations.

[4] = in vitro; assay type: cell-based; conditions: mouse
Procedure: (§2) Cardiac cell cultures were incubated for 24 h at 37 °C with different concentrations of the compounds (up to 200 µM) diluted in DMEM (without phenol red). Their morphology and spontaneous contractibility were evaluated by light microscopy and then the cellular viability was determined by the PrestoBlue® assay. For this colorimetric bioassay, PrestoBlue® (Invitrogen, Waltham, MA, USA) was added to each well (using a 10:1 medium/dye), the plate was further incubated for 24 h followed by optical density (OD) measurement performed at 570 and 600 nm, as recommended by the manufacturer.

[5] = test system: Salmonella enterica serovar Typhimurium TA102
[6] = in vitro; assay type: cell-based; conditions: mouse; remark: listed apart in the source
Procedure: Primary cultures of cardiac cells (CC) were obtained as reported in [50]. The cultures were sustained in Dulbecco’s modified Eagle’s medium (DMEM) supplemented with 10% horse serum, 5% fetal bovine serum (FBS), 2.5 mM CaCl2, 1 mM L-glutamine, and 2% chicken embryo extract. Cell cultures were maintained at 37 °C in an atmosphere of 5% CO2, and assays were run at least three times in triplicate.
as §2

[7] = test system: T. cruzi; test: Trypanocidal in vitro phenotypic screening, overall outcome; assay type: cell-based, Trypanosoma cruzi; conditions: summarized outcome
Procedure: as §1
Tissue culture-derived trypomastigotes (Tulahuen strain expressing the E. coli β-galactosidase gene) were maintained in L929 cell lines and collected from the supernatant after 96 h of parasite infection, following previously established protocols. Briefly, after 24 h of L929 platting (4 × 10^3 cells/well), the cultures were incubated with trypomastigotes (10:1 parasite/host cell ratio) for 2 h at 37 °C. Then, the cell cultures were rinsed to remove non-internalized parasites and then further incubated for 24 h at 37 °C. Then the infected cultures were followed using two sequential protocols. […] After this period, 50 µL chlorophenol red glycoside (500 µM) in 0.5% Nonidet P40 was added to each well and the plate was incubated for more than 18 h at 37 °C, after which the absorbance was measured at 570 nm. Then, the compounds were next evaluated using dose–response assays in which Tulahuen-infected-L929 cells were exposed to different non-toxic concentrations of each compound (0–50 µM) and then after 96 h of incubation the same procedure was conducted as above reported. Controls with untreated and Bz-treated cells are run in parallel. The results were expressed as the percent difference in the reduction between treated and untreated cells.

[8] = Trypanosoma cruzi, TULAHUEN, L929, 96 h

SMILES | EC50 [1, 8] | 10µM (% of Parasite Lysis) [1] | cytotoxicity (survival rate) in micronuclei assay [2] | micronuclei formation (genotoxicity) [2] | EC50 [3] | CC50 at 96 h [4] | revertant His+ colonies TA102 ([5]; +S9, 3 µM) | revertant His+ colonies TA102 ([5]; +S9, 15 µM) | revertant His+ colonies TA102 ([5]; +S9, 30 µM) | revertant His+ colonies TA102 ([5]; +S9, 150 µM) | revertant His+ colonies TA102 ([5]; +S9, 300 µM) | revertant His+ colonies TA102 ([5]; +S9, 1500 µM) | revertant His+ colonies TA102 ([5]; −S9, 3 µM) | revertant His+ colonies TA102 ([5]; −S9, 15 µM) | revertant His+ colonies TA102 ([5]; −S9, 30 µM) | revertant His+ colonies TA102 ([5]; −S9, 150 µM) | revertant His+ colonies TA102 ([5]; −S9, 300 µM) | revertant His+ colonies TA102 ([5]; −S9, 1500 µM) | CC50 at 24 h [6] | Trypanocidal Activity [7] | also measured
CC(=O)Nc1ccccc1C(F)(F)C(=O)NCC[C@@H]1C[C@H](CC(=O)OC(C)(C)C)OC(C)(C)O1 [Compound 13a, tert-Butyl 2-((4R,6R)-6-(2-(2-(2-acetamidophenyl)-2,2-difluoroacetamido)ethyl)-2,2-dimethyl-1,3-dioxan-4-yl)acetate] | ≥ 50 µM | 17.92 ± 11.02% | significant cytotoxic effects upon 1000 µM | did not induce micronuclei formation; also recorded: non-genotoxic | > 500 µM | 112 ± 28.3 µM | 384 ± 32 | 399 ± 32 | 407 ± 21 | 411 ± 46 | 448 ± 52 | 501 ± 20 | 458 ± 19 | 435 ± 22 | 433 ± 7 | 380 ± 12 | 345 ± 48 | Cytotoxic | > 500 µM | No | EC50 [1]: > 50 µM
CC(=O)Nc1ccc(C)cc1C(F)(F)C(=O)NCC[C@@H]1C[C@H](CC(=O)OC(C)(C)C)OC(C)(C)O1 [Compound 13b, tert-Butyl 2-((4R,6R)-6-(2-(2-(2-acetamido-5-methylphenyl)-2,2-difluoroacetamido)ethyl)-2,2-dimethyl-1,3-dioxan-4-yl)acetate] | ≥ 50 µM | 25.41 ± 10.90% | statistical enhancement; also recorded: cytotoxic | statistical enhancement; also recorded: genotoxic; also recorded: only increased micronucleation in HepG2 cells at >2000 µM | > 500 µM | 114 ± 35.4 µM | 365 ± 37 | 386 ± 42 | 403 ± 19 | 396 ± 31 | 372 ± 40 | 399 ± 18 | 388 ± 20 | 393 ± 18 | 423 ± 11 | 503 ± 23 | 543 ± 39 | 560 ± 41 | > 500 µM | No | EC50 [1]: > 50 µM
CC(=O)Nc1ccc(Cl)cc1C(F)(F)C(=O)NCC[C@@H]1C[C@H](CC(=O)OC(C)(C)C)OC(C)(C)O1 [Compound 13c, tert-Butyl 2-((4R,6R)-6-(2-(2-(2-acetamido-5-chlorophenyl)-2,2-difluoroacetamido)ethyl)-2,2-dimethyl-1,3-dioxan-4-yl)acetate] | 9.24 ± 1.06 µM | – | – | did not induce micronuclei formation | 28.2 ± 0.75 µM | 153 ± 25.2 µM | 392 ± 8 | 390 ± 12 | 402 ± 24 | 401 ± 66 | 403 ± 12 | 430 ± 14 | 373 ± 50 | 386 ± 35 | 387 ± 33 | 386 ± 5 | 400 ± 24 | 450 ± 32 | > 500 µM | Yes | SI [1]: 16.7; SI [3]: >17.7
CC(=O)Nc1ccc(Br)cc1C(F)(F)C(=O)NCC[C@@H]1C[C@H](CC(=O)OC(C)(C)C)OC(C)(C)O1 [Compound 13d, tert-Butyl 2-((4R,6R)-6-(2-(2-(2-acetamido-5-bromophenyl)-2,2-difluoroacetamido)ethyl)-2,2-dimethyl-1,3-dioxan-4-yl)acetate] | 11.4 ± 3.29 µM | – | non-cytotoxic | induced a significant micronuclei formation; also recorded: induced genotoxicity | 23.2 ± 3.13 µM | 114 ± 5.29 µM | 153 ± 13 | 155 ± 20 | 160 ± 11 | 162 ± 31 | 176 ± 11 | Cytotoxic | 356 ± 7 | Cytotoxic | – | – | – | – | > 500 µM | Yes | SI [1]: 10; SI [3]: >21.6
